Source: ChEMBL document CHEMBL4017455, “Novel small molecule guanidine Sigma1 inhibitors for advanced prostate cancer” (Bioorg Med Chem Lett, 2017)
≈ marks a conversion by molar mass, not a printed value. Calls of active or inactive are those of the source. The calls are words filed in the database; no cut-off is given here.

How the values were obtained:
[1] = molecular target: T1, Voltage-gated inwardly rectifying potassium channel KCNH2 (Homo sapiens, UniProt Q12809); assay: Inhibition of human ERG
T1 sequence (Q12809 whole entry): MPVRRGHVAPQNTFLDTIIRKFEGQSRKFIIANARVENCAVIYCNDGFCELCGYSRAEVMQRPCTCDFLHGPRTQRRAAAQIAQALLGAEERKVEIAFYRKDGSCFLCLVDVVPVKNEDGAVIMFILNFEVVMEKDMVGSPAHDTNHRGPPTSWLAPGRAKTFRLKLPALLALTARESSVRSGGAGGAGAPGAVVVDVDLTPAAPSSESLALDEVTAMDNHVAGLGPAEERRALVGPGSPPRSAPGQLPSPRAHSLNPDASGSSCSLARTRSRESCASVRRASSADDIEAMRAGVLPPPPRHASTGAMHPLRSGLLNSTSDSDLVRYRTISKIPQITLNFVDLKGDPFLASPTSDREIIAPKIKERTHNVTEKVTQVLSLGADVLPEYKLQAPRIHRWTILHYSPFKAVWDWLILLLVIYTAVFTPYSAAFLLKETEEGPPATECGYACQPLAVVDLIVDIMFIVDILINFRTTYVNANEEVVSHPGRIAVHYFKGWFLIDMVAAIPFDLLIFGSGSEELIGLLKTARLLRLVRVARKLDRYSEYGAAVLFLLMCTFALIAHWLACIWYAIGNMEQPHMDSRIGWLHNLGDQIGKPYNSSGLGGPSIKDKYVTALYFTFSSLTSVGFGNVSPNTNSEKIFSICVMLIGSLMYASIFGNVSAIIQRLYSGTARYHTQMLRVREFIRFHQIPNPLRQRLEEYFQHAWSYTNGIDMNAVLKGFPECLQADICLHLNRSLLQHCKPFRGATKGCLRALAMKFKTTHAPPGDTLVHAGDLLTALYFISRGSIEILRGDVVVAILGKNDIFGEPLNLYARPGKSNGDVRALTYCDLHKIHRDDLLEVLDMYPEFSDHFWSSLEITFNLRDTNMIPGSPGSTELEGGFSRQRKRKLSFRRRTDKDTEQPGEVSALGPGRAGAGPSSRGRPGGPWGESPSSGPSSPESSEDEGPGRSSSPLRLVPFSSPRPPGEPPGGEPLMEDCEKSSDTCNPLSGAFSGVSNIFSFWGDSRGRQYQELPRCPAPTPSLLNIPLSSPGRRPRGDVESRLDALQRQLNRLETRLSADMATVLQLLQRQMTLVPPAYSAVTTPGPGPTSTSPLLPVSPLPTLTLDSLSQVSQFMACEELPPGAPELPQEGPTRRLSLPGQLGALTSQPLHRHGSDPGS

MDA-MB-468 = assay: Antiproliferative activity against human MDA-MB-468 cells at 3 to 20 uM by CellTiter-Glo assay; assay type: functional, cell-based
[2] = Solubility of compound in PBS buffer at pH 7.4; assay type: physicochemical
Plasma [3] = assay: Protein binding in mouse plasma; assay type: ADME, cell-free
[4] = Stability in mouse liver microsomes; assay type: ADME, microsome; conditions: read-out: Stability
[5] = molecular target: T2, Sigma non-opioid intracellular receptor 1 (Homo sapiens, UniProt Q99720); assay: Displacement of [3H]-(+)-pentazocine from sigma1 in human MDA-MB-468 cell membranes
T2 sequence (Q99720 whole entry): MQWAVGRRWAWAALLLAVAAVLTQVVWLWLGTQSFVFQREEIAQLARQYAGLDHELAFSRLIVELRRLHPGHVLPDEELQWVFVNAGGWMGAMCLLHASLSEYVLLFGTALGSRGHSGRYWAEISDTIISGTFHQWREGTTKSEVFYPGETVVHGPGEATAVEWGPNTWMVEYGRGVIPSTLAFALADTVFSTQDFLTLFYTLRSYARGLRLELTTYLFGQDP

Plasma [6] = assay: Protein binding in human plasma; assay type: ADME, cell-free
[7] = Stability in human plasma; assay type: ADME, cell-free; conditions: read-out: Stability
[8] = Stability in human liver microsomes; assay type: ADME, microsome; conditions: read-out: Stability
[9] = Stability in mouse plasma; assay type: ADME, cell-free; conditions: read-out: Stability
[10] = molecular target: T2, Sigma non-opioid intracellular receptor 1; assay: Displacement of [125I]-IPAG from sigma1 in human MDA-MB-468 cell membranes
Androgen receptor = molecular target: T3, Androgen receptor (Homo sapiens, UniProt P10275); assay: Antagonist activity at full length human androgen receptor expressed in mammalian expression system measured after 22 to 24 hrs by luciferase reporter gene assay
T3 sequence (P10275 whole entry): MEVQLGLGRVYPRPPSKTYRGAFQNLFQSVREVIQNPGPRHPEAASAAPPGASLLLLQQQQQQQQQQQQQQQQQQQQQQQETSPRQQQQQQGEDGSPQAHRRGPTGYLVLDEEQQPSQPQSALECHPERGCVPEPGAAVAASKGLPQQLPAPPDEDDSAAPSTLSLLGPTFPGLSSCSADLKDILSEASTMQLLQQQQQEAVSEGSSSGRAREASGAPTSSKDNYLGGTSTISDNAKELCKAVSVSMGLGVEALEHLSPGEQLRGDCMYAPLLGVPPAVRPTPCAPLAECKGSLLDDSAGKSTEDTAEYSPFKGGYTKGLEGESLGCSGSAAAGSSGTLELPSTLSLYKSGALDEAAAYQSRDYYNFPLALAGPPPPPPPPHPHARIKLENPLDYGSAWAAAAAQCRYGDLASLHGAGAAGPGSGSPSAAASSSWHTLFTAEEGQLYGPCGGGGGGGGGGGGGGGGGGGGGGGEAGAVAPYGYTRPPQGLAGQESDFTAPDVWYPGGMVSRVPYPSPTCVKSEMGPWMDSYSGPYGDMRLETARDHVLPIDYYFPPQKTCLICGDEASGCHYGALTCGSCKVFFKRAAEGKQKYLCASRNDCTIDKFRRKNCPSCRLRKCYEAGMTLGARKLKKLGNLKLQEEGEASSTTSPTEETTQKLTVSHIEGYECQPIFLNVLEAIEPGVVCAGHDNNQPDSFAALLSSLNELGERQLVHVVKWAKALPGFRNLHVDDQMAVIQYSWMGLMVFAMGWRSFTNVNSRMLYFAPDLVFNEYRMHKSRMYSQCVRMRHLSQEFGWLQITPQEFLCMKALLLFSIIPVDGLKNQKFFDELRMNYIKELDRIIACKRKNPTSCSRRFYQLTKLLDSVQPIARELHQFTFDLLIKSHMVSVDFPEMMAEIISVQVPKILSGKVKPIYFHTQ

[11] = molecular target: T1, Voltage-gated inwardly rectifying potassium channel KCNH2; assay: Inhibition of human ERG expressed in CHOK1 cells by Qpatch clamp method
[12] = Half life in Swiss mouse plasma at 30 mg/kg, po
Plasma [13] = conditions: mouse, in vivo, ip, 10 mg/kg
in vivo [14] = conditions: Swiss, mouse, plasma, po, 30 mg/kg
[15] = AUC (0 to infinity) in Swiss mouse plasma at 30 mg/kg, po; assay type: ADME, organism-based; parameters: dose 30 mg/kg, time infinity, route oral
[16] = Ratio of drug level in Swiss mouse brain to plasma at 10 mg/kg, ip
in vivo [17] = conditions: Swiss, mouse, plasma, po, 10 mg/kg
Brain = conditions: mouse, in vivo, ip, 10 mg/kg
[18] = AUC (0 to infinity) in Swiss mouse plasma at 10 mg/kg, ip; assay type: ADME, organism-based; parameters: dose 10 mg/kg, route intraperitoneal, time infinity
in vivo [19] = conditions: Swiss, mouse, plasma, po, 10 mg/kg; remark: listed apart in the source
[20] = AUC (0 to infinity) in Swiss mouse plasma at 2 mg/kg, iv; assay type: ADME, organism-based; parameters: dose 2 mg/kg, time infinity, route intravenous
[21] = Volume of distribution in Swiss mouse plasma at 2 mg/kg, iv; assay type: ADME, organism-based
in vivo [22] = conditions: Swiss, mouse, plasma, po, 30 mg/kg; remark: listed apart in the source
in vivo [23] = conditions: Swiss, mouse, plasma, po, 30 mg/kg; remark: listed apart in the source
in vivo [24] = conditions: Swiss, mouse, plasma, po, 10 mg/kg; remark: listed apart in the source
[25] = Half life in Swiss mouse plasma at 10 mg/kg, po
[26] = AUC (0 to infinity) in Swiss mouse brain at 10 mg/kg, ip; assay type: ADME, organism-based; parameters: dose 10 mg/kg, time infinity, route intraperitoneal
[27] = AUC (0 to infinity) in Swiss mouse plasma at 10 mg/kg, po; assay type: ADME, organism-based; parameters: dose 10 mg/kg, time infinity, route oral
[28] = Clearance in Swiss mouse plasma at 2 mg/kg, iv

| Structure (SMILES) | IC50 [1] | solubility [2] | PPB (Plasma [3]) | half-life [4] | Ki [5] | PPB (Plasma [6]) | half-life [7] | half-life [8] | half-life [9] | EC50 (Androgen receptor) | also measured |
| --- | --- | --- | --- | --- | --- | --- | --- | --- | --- | --- | --- |
| N=C(NCCCOc1ccc(F)cc1)Nc1ccc(I)cc1 | 109 nM | 5370 µg/mL (≈ 13 mM) | 97.9% | 0.41 h | 46.1 nM | 96.6% | > 6 h | > 1.5 h | > 6 h | – | Activity (MDA-MB-468): Active |
| N=C(Nc1ccc(I)cc1)Nc1ccc(I)cc1 | – | – | – | – | – | – | – | – | – | – | Ki [10]: 3 nM |
| N=C(NCCCOc1ccc(F)cc1)NCCCOc1ccc(F)cc1 | – | – | – | – | – | – | – | – | – | – | Ki [10]: > 1000 nM |
| COc1ccc(NC(=N)NCCCOc2ccc(F)cc2)cc1 | 417 nM | 8450 µg/mL (≈ 26.6 mM) | 82.1% | 0.117 h | 13.4 nM | 75.1% | > 6 h | 0.387 h | > 6 h | 28100 nM | – |
| N=C(NCCCOc1ccc(F)cc1)Nc1ccc(C(F)(F)F)cc1 | – | – | – | – | 45.3 nM | – | – | – | – | – | – |
| CC(=O)O[C@H]1CC[C@@]2(C)C(=CC[C@@H]3[C@@H]2CC[C@]2(C)C(c4cccnc4)=CC[C@@H]32)C1 [ABIRATERONE ACETATE] | – | – | – | – | – | – | – | – | – | 17000 to 17100 nM | – |
| NC(=NC12CC3CC(CC(C3)C1)C2)Nc1ccc(I)cc1 | 491 nM | – | – | – | – | – | – | – | – | 9500 to 9750 nM | IC50 [11]: 2600 nM |
| N=C(NCCCOc1ccc(F)cc1)Nc1ccc(Cl)cc1 | – | 4580 µg/mL (≈ 14.2 mM) | 88.8% | 0.413 h | – | 93.4% | > 6 h | > 1.5 h | > 6 h | 12700 nM | half-life [12]: > 3 h; Activity (MDA-MB-468): Active; Cmax (Plasma [13]): 438 nM; AUC(0-t) (in vivo [14]): 414 ng·h/mL; AUC(0-inf) [15]: 480 ng·h/mL; Kp [16]: 5; Cmax (in vivo [17]): 304 nM; Cmax (Brain): 2150 nM; AUC(0-inf) [18]: 166 ng·h/mL; Tmax (in vivo [19]): 0.25 h; AUC(0-inf) [20]: 57 to 71 ng·h/mL; Vd [21]: 57.6 to 91 L/kg; Cmax (in vivo [22]): 674 nM; Tmax (in vivo [23]): 1 h; AUC(0-t) (in vivo [24]): 119 ng·h/mL; half-life [25]: > 3 h; AUC(0-inf) [26]: 856 ng·h/mL; AUC(0-inf) [27]: 141 ng·h/mL; clearance [28]: 469 to 586 mL/min/kg |
